The values that follow are results of earlier work, collected in US20030157192A1, “Low temperature disinfectant/sterilant for medical devices and topical applications” (Healthpoint, Ltd., priority 2002, published 2003).

For series [1] the following is noted: room temperature; low pH.
Another series has as its system mouse skin. The note with it: tested on mouse skin.

SMILES strings stand for the structures.

In the case of `OO` [6% hydrogen peroxide, hydrogen peroxide], the “minimum time required to pass the AOAC Sporicidal Test” value in series [1] was at least 6 h.
On to `CC(=O)OO` [Peracetic acid], for which, in the series with mouse skin, the tumor promotion result is given as “tumor-promoting agent”.
